# Columns and labels:
# [1] = tested on: COX-1 and COX-2 recombinant enzymes; details: major compound of fraction D3, Camellia sinensis aqueous extract; cited from earlier work
# [2] = tested on: B16 F1 mouse melanoma cells; experiment: Inhibition of melanogenesis (alpha-MSH stimulated melanin formation); assay type: cell-based; details: identified by dereplication of fractions D2 to D7
# Description: Inhibition of melanogenesis was determined by a modified method of Siegrist and Eberle (x). B16 F1 mouse melanoma cells (2.0×10^4 cells/mL) were subcultured in GibcoBRL Modified Eagle Medium (10% FBS, 1% Gibco non-essential amino acids, 1% PSG, 1.5% Gibco vitamin solution). After 3 days incubation (37° C., 5% CO2) cells were seeded (2500 cells/well, 200 μL) in 96 well sterile culture plates (Costar) and incubated overnight (37° C., 5% CO2). The next day, cell culture medium was replaced with 100 μL fresh medium. Extract samples were dissolved in DMSO at a concentration of 30 mg/mL and diluted 1:1000 in cell culture medium on separate, sterile, 96 well plates. […] Sample wells containing no α-MSH were used to determine sample absorbance at 450 nm unrelated to melanin pigment formation as control. […] The degree of melanin formation was determined at 450 nm in a 96 well plate reader. Percent inhibition of samples was determined by the formula: […]
# Ac MSH+: Absorbance at 450 nm of cells containing no sample, with MSH
# Ac MSH−: Absorbance at 450 nm of cells containing no sample, without MSH
# As MSH+: Absorbance at 450 nm of cells containing sample, with MSH
# As MSH−: Absorbance at 450 nm of cells containing sample, without MSH
SMILES,COX inhibitor (known activity) [1],Inhibition of melanin synthesis [2]
"O=C(O[C@@H]1Cc2c(O)cc(O)cc2O[C@@H]1c1cc(O)c(O)c(O)c1)c1cc(O)c(O)c(O)c1 [Epigallocatechin Gallate (EGCG), Epigallocatechin Gallate]",well known COX inhibitor,
O=C(OC1C(CO)OC(O)C2OC(=O)c3cc(O)c(O)c(O)c3-c3c(cc(O)c(O)c3O)C(=O)OC21)c1cc(O)c(O)c(O)c1 (centres unmarked) [Pterocaryanin B],,inhibition of melanin synthesis

# Reference: patent publication US20030113797A1, “Method for generating, screening and dereplicating natural product libraries for the discovery of therapeutic agents” (UNIGEN PHARMACEUTICALS, INC., priority 2001, published 2003)
